The numbers were not newly measured in US20040116402A1, “Superoxide dismutase mimics for the treatment of ocular disorders and diseases” (priority 2002, published 2004), which cites them from elsewhere.

Series [1] relates to autoimmune diabetes by a diabetogenic T-cell clone. The settings on record: in a cloned cell (diabetogenic T-cell clone adoptive transfer).

Consider `CCN1C=CC=C/C1=C1/C2=NC(=C(c3cccc[n+]3CC)C3=NC(=C(c4cccc[n+]4CC)c4ccc([n-]4)C(c4cccc[n+]4CC)=C4C=CC1=N4)C=C3)C=C2.[Cl-].[Cl-].[Cl-].[Cl-].[Cl-].[Mn+3]` [AEOL10113], for which the onset of diabetes result in series [1] was “delay the onset of diabetes”. Take `[Cl-].[Cl-].[Mn+2].c1cc2nc(c1)CN[C@@H]1CCCC[C@H]1NCCN[C@@H]1CCCC[C@H]1NC2` [M40403]: in the series with diabetic rats, the “vascular and neural dysfunction” value is “prevented vascular and neural dysfunction”. As for `CC1(C)CC(O)CC(C)(C)N1[O]` [4-hydroxy-2,2,6,6-tetramethylpiperidine-1-oxyl], the light-induced retinal damage entry in the series with albino rats is “inhibited light-induced retinal damage”.
